Patent US20240245677A1, “SELECTED COMPOUNDS FOR TARGETED DEGRADATION OF BRD9” (C4 THERAPEUTICS, INC., priority 2021, published 2024)
Where two headings read alike, the source gives them in different places.

What was measured:
SALL4 = target: T1, SALL4 (Homo sapiens, UniProt Q96SW2+Q9UJQ4); experiment: SALL4 HiBiT degradation assay in KELLY.2 cells; type: cell-based
T1 construct: CRISPR-edited to endogenously express HiBiT tagged SALL4; host or cells: KELLY.2
Excerpt: Nano-Glo® HiBiT Lytic Assay System was purchased from Promega (Catalog No. N3050, Madison, WI, USA). […] The HiBiT polypeptide tag was introduced into the C-terminus of the endogenous SALL4 locus by CRISPR-Cas9 to produce the modified KELLY.2 cell line. The HiBiT polypeptide allows reconstitution of NanoBiT enzyme following cell lysis and addition of the complementing LgBiT polypeptide that activates substrate to produce a luminescent signal that is directly proportional to the amount of HiBiT-tagged SALL4.
KELLY.2 cells were routinely sub-cultured to maintain cell density between 30-80% confluence, not to exceed 10 passages. Cells were washed with PBS, trypsinized for 5 minutes at 37° C., and resuspended in fresh growth media without phenol red. […] Cell concentration was adjusted with growth media without phenol red to 2×10^5 cells/mL.
30 nL DMSO was transferred to all control wells.
30 μL of media was dispensed to column 24 as background positive control (P). Plates were spun briefly at 1000 rpm and cells were incubated at 37° C., 5% CO2 for 6 hours. Final concentration of DMSO was 0.1% for all samples.
Cellular SALL4 protein level was determined based on quantification of HiBiT using Nano-Glo® HiBiT Lytic Assay System (Promega). […] Cells treated in the absence of the test compound (0.1% DMSO vehicle) were the negative control (N) and wells containing only media were the positive control (P).
Percent response of compound-treated samples (T) were calculated by normalizing to the DMSO treated negative (N) controls on the same microtiter plate after background (i.e., positive control) signal subtraction:
Curve fit and DC50 (concentration that degrades 50% SALL4) determination was performed by 4 parametric logistic fit analysis using software such as GraphPad Prism software (GraphPad Software, LLC, San Diego, CA, USA). The fit was performed through minimization of the root mean squared error between observed and calculated values of the four-parameter logistic equation using the simplex optimizer of the Apache Commons Math library. […] DC50 values were computed as the concentrations where the fitted curves cross the 50% response level. Averages and standard deviations were computed from replicates of the experiment.

BRD7 = target: T2, BRD7 (Homo sapiens, UniProt Q9NPI1); experiment: BRD7 HiBiT degradation assay in HEK293T.167 cells; type: cell-based
T2 construct: endogenously expressing BRD7 with HiBiT fusion tag via CRISPR; host or cells: HEK293T.167 (293T.167, BRD7-HiBiT HEK293, LgBiT by lentivirus)
T2 sequence (Q9NPI1 1-651): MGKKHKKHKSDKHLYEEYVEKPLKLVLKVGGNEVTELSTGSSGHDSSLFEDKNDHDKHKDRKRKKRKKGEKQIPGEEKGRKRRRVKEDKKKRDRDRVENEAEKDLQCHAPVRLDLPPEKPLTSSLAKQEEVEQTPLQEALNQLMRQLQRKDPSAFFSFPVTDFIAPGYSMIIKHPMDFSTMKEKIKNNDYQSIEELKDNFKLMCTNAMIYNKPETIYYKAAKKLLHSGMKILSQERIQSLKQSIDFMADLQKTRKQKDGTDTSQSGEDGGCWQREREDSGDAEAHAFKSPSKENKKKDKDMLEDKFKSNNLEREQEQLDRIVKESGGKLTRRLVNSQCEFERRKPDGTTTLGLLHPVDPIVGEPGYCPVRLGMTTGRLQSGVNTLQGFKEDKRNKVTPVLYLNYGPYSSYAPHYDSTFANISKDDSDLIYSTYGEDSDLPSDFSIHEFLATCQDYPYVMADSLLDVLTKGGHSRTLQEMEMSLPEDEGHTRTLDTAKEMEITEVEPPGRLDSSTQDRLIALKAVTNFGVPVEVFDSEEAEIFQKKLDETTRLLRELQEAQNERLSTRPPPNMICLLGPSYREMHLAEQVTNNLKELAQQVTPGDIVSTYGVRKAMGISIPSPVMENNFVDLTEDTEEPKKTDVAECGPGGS

[1] = Crystallization at room temperature by slow evaporation; type: physicochemical
Protocol: Based on approximate solubility results, about 10 mg of Compound 1 free form Pattern E was dissolved in suitable amount of solvents. Obtained suspensions or solutions were centrifuged. […] Solid residues were examined for their polymorphic form.

[2] = Crystallization by vapor diffusion; type: physicochemical
Protocol: Based on approximate solubility results, about 20 mg of Compound 1 free form Pattern E was dissolved in the minimal amount of good solvent in 2 mL glass vial without lid. Then the 2 mL lid less vial was placed to 8 mL vial. To the 8 mL vial was added anti-solvent. Then the 8 mL vial was capped and placed at ambient condition. Precipitates were collected by centrifugation filtration through a 0.45 μm nylon membrane filter at 14,000 rpm for 5 min. Solid parts (wet cakes) were investigated by XRPD.

T1 sequence (Q9UJQ4 whole entry): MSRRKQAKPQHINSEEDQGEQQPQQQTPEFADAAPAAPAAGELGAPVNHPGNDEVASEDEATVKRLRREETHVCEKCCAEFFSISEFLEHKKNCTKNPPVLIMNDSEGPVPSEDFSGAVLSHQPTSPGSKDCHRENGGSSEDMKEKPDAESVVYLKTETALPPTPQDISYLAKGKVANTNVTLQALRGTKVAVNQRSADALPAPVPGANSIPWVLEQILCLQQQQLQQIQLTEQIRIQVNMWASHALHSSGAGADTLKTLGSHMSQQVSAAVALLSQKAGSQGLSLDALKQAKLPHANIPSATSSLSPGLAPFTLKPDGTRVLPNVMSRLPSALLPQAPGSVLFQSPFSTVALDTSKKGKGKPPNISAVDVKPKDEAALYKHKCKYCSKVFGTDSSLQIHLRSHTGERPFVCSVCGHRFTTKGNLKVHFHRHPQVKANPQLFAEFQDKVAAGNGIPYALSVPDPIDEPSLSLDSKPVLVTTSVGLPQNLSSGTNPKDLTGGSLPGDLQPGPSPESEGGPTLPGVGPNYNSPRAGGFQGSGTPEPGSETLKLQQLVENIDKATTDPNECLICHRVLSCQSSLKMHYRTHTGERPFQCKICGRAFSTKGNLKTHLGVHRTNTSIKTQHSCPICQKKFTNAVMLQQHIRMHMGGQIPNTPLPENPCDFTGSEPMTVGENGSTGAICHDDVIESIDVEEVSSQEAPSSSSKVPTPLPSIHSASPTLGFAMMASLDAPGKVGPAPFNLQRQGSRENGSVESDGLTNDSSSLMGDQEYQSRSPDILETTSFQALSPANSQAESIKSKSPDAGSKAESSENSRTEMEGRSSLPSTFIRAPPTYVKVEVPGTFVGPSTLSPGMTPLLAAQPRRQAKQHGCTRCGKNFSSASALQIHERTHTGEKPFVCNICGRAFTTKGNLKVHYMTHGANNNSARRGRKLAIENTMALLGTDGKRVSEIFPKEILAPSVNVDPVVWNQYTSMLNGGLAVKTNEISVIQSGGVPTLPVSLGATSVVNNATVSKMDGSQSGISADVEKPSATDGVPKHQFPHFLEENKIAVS
T1 sequence (Q96SW2 whole entry): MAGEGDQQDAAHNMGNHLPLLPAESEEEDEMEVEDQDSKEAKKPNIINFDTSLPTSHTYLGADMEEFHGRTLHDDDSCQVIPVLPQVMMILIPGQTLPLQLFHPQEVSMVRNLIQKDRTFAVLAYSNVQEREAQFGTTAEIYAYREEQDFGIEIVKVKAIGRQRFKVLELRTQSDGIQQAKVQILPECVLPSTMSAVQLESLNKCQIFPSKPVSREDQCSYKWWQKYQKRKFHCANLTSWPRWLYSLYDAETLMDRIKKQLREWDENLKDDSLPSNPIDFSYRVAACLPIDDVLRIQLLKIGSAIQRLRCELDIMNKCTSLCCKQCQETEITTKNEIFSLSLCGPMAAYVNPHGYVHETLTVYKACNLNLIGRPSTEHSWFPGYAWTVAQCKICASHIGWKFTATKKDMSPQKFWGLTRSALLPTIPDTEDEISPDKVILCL
T1 sequence (Q16531 2-1140 partner limits assumed): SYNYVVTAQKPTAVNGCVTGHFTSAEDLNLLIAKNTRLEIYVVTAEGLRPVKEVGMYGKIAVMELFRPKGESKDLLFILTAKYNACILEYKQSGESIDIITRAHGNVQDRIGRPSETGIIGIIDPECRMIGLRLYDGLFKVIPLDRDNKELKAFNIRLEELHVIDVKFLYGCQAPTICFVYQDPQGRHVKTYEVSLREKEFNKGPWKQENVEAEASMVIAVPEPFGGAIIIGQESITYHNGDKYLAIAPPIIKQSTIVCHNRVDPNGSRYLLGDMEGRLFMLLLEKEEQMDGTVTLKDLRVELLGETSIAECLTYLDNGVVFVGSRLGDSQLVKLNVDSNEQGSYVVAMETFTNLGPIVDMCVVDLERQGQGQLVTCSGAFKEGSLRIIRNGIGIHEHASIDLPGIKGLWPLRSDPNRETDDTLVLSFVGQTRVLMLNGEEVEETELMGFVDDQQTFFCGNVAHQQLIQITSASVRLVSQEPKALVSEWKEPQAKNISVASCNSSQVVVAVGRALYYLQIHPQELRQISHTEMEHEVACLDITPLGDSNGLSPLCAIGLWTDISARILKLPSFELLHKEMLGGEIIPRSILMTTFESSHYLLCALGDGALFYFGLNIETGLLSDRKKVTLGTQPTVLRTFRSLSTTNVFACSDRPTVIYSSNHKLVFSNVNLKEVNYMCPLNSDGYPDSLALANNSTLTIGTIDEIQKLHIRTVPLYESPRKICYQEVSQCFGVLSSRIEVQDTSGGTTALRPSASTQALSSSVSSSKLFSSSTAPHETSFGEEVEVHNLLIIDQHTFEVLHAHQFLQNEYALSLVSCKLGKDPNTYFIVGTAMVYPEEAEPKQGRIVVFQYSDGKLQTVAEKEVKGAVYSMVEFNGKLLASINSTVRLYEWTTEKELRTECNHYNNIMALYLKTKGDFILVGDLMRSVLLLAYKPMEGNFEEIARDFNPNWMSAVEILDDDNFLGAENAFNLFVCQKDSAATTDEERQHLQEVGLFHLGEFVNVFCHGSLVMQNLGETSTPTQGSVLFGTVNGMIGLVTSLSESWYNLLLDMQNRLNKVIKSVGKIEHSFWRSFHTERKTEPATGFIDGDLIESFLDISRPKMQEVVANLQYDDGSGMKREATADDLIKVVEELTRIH

In the case of `COc1cc(-c2cn(C)c(=O)c(C)c2C)cc(OC)c1CN1CC[C@H](N2CCN(c3ccc(N[C@H]4CCC(=O)NC4=O)cc3F)CC2)C(F)(F)C1` [Compound 1, (S)-3-((4-(4-((S)-1-(2,6-dimethoxy-4-(1,4,5-trimethyl-6-oxo-1,6-dihydropyridin-3-yl)benzyl)-3,3-difluoropiperidin-4-yl)piperazin-1-yl)-3-fluorophenyl)amino)-piperidine-2,6-dione], the “% SALL4 Remaining Relative to Vehicle Control at 6 hr, Mean” value (SALL4; 0.101 nM) is reported as 103.8%, the “% SALL4 Remaining Relative to Vehicle Control at 6 hr, Mean” value (SALL4; 0.318 nM) is reported as 104.1% and the “% SALL4 Remaining Relative to Vehicle Control at 6 hr, Mean” value (SALL4; 1.01 nM) is reported as 104.1%. The “% SALL4 Remaining Relative to Vehicle Control at 6 hr, Mean” value (SALL4; 3.17 nM) was 103.7%, the “% SALL4 Remaining Relative to Vehicle Control at 6 hr, Mean” value (SALL4; 10.0 nM) was 106.5% and the “% SALL4 Remaining Relative to Vehicle Control at 6 hr, Mean” value (SALL4; 31.7 nM) was 106.1%. The “% SALL4 Remaining Relative to Vehicle Control at 6 hr, Mean” value (SALL4; 100 nM) was 104.2%, the “% SALL4 Remaining Relative to Vehicle Control at 6 hr, Mean” value (SALL4; 317 nM) was 105.0% and the “% SALL4 Remaining Relative to Vehicle Control at 6 hr, Mean” value (SALL4; 1000 nM) was 104.0%. For the same compound, the “% SALL4 Remaining Relative to Vehicle Control at 6 hr, Mean” value (SALL4; 3161 nM) was 104.4%, the “% SALL4 Remaining Relative to Vehicle Control at 6 hr, Mean” value (SALL4; 9990 nM) was 96.6% and the Emax (SALL4; SALL4-HiBiT, KELLY.2 cells, 6 hours, read-out: Mean Emax (%) ± SD) was 98.9 ± 2.1%. The “effect on degradation of SALL4” value (SALL4; concentrations up to 10 μM, 6 hours) was “no significant effect”, the “% BRD7 Remaining Relative to Vehicle Control at 24 hr, Mean” value (BRD7; 0.101 nM) was 99.8% and the “% BRD7 Remaining Relative to Vehicle Control at 24 hr, Mean” value (BRD7; 0.318 nM) was 101.3%. For the same compound, the “% BRD7 Remaining Relative to Vehicle Control at 24 hr, Mean” value (BRD7; 1.01 nM) was 101.0%, the “% BRD7 Remaining Relative to Vehicle Control at 24 hr, Mean” value (BRD7; 3.17 nM) was 99.8% and the “% BRD7 Remaining Relative to Vehicle Control at 24 hr, Mean” value (BRD7; 10.0 nM) was 102.4%. For the same compound, the “% BRD7 Remaining Relative to Vehicle Control at 24 hr, Mean” value (BRD7; 31.7 nM) was 103.4%, the “% BRD7 Remaining Relative to Vehicle Control at 24 hr, Mean” value (BRD7; 100 nM) was 101.0% and the “% BRD7 Remaining Relative to Vehicle Control at 24 hr, Mean” value (BRD7; 317 nM) was 102.3%. The “% BRD7 Remaining Relative to Vehicle Control at 24 hr, Mean” value (BRD7; 1000 nM) was 106.3%, the “% BRD7 Remaining Relative to Vehicle Control at 24 hr, Mean” value (BRD7; 3161 nM) was 117.4% and the “% BRD7 Remaining Relative to Vehicle Control at 24 hr, Mean” value (BRD7; 9990 nM) was 143.3%. For the same compound, the DC50 (BRD7; BRD7-HiBiT, 293T.167 cells, 24 hours, read-out: Mean DC50) was over 10 µM, the Emax (BRD7; BRD7-HiBiT, 293T.167 cells, 24 hours, read-out: Mean Emax (%) ± SD) was 97.6 ± 6.41% and the “effect on the degradation of BRD7” value (BRD7; concentrations up to 10 μM, 24 hours) was “no significant effect”. For the same compound, the DC50 (BRD7; summary statement, read-out: DC50 against BRD7) was over 1 µM, the Comments ([1]; slow evaporation at room temperature, 1,4-dioxane) was “Gel-like sample” and the Comments ([1]; slow evaporation at room temperature, 2-MeTHF) was “Gel-like sample”. For the same compound, the XRPD ([1]; slow evaporation at room temperature, Acetonitrile) was “Pattern A”, the Comments ([1]; slow evaporation at room temperature, Ethanol) was “Gel-like sample” and the XRPD ([1]; slow evaporation at room temperature, Ethyl acetate) was “Pattern F”. For the same compound, the Comments ([1]; slow evaporation at room temperature, THF) was “Jelly-like sample”, the Comments ([2]; vapor diffusion, 1,4-Dioxane/50, anti-solvent MTBE/600) was “Gum-like sample” and the Comments ([2]; vapor diffusion, 2-MeTHF/120, anti-solvent MTBE/1080) was “Gum-like sample”. The Comments ([2]; vapor diffusion, THF/50, anti-solvent MTBE/600) was “Gum-like sample”.
